Measurements as given in ChEMBL document CHEMBL1201862, “PubChem BioAssay data set” (2004).
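Growth conditions: 96-well plates. Treatment: test compound, 48 hours, 5 concentrations. Analysis: linear interpolation between bracketing concentrations; unreached endpoints set to highest concentration. At the GI50, growth is halved.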 Active and inactive are the calls of the source. Cut-off read from the data, not from the text of the source: active = GI50 up to about 1.1 µM and inactive = higher.

Tests used:
Assay in all cases: growth of human tumour cells (NCI), 48 h
[1] = system: 786-0
[2] = system: A498
[3] = system: A549
[4] = system: ACHN
[5] = system: BT-549
[6] = system: CAKI-1
[7] = system: CCRF-CEM
[8] = system: COLO 205
[9] = system: DU-145
[10] = system: EKVX
[11] = system: HCT-116
[12] = system: HCT-15
[13] = system: HL-60
[14] = system: HOP-62
[15] = system: HOP-92
[16] = system: HT-29
[17] = system: Hs-578T
[18] = system: IGROV-1
[19] = system: K562
[20] = system: KM12
[21] = system: LOX IMVI
[22] = system: M14
[23] = system: MCF7
[24] = system: MDA-MB-231
[25] = system: MDA-MB-435
[26] = system: MDA-N
[27] = system: MOLT-4
[28] = system: Malme-3M
[29] = system: NCI-H226
[30] = system: NCI-H23
[31] = system: NCI-H460
[32] = system: NCI-H522
[33] = system: NCI/ADR-RES
[34] = system: OVCAR-3
[35] = system: OVCAR-4
[36] = system: OVCAR-5
[37] = system: OVCAR-8
[38] = system: PC-3
[39] = system: RPMI-8226
[40] = system: RXF 393
[41] = system: SF-268
[42] = system: SF-295
[43] = system: SF-539
[44] = system: SK-MEL-28
[45] = system: SK-MEL-2
[46] = system: SK-MEL-5
[47] = system: SK-OV-3
[48] = system: SN12C
[49] = system: SNB-19
[50] = system: SNB-75
[51] = system: SR
[52] = system: SW-620
[53] = system: T47D
[54] = system: TK-10
[55] = system: U-251
[56] = system: UACC-257
[57] = system: UACC-62
[58] = system: UO-31

NS(=O)(=O)c1ccc(/N=N/c2cnc(O)c(O)c2)cc1
GI50 [1]: > 100 µM (inactive)
GI50 [2]: > 100 µM (inactive)
GI50 [3]: > 100 µM (inactive)
GI50 [4]: > 100 µM (inactive)
GI50 [5]: 42.5 µM (inactive)
GI50 [6]: > 100 µM (inactive)
GI50 [7]: 19.6 µM (inactive)
GI50 [8]: 95.3 µM (inactive)
GI50 [9]: 78.2 µM (inactive)
GI50 [10]: > 100 µM (inactive)
GI50 [11]: > 100 µM (inactive)
GI50 [12]: > 100 µM
GI50 [13]: > 100 µM (inactive)
GI50 [14]: > 100 µM (inactive)
GI50 [15]: 81.7 µM (inactive)
GI50 [16]: > 100 µM (inactive)
GI50 [17]: 66.1 µM (inactive)
GI50 [18]: > 100 µM (inactive)
GI50 [19]: > 100 µM (inactive)
GI50 [20]: 96.8 µM (inactive)
GI50 [21]: 91.2 µM (inactive)
GI50 [22]: 81.3 µM (inactive)
GI50 [23]: 44.2 µM (inactive)
GI50 [24]: > 100 µM (inactive)
GI50 [25]: > 100 µM (inactive)
GI50 [26]: > 100 µM (inactive)
GI50 [27]: 54 µM (inactive)
GI50 [28]: 29.8 µM (inactive)
GI50 [29]: > 100 µM (inactive)
GI50 [30]: 64 µM (inactive)
GI50 [31]: > 100 µM (inactive)
GI50 [32]: 14.1 µM (inactive)
GI50 [33]: 94.2 µM (inactive)
GI50 [34]: 28.8 µM (inactive)
GI50 [35]: 50 µM (inactive)
GI50 [36]: > 100 µM (inactive)
GI50 [37]: 76.2 µM (inactive)
GI50 [38]: > 100 µM (inactive)
GI50 [39]: > 100 µM (inactive)
GI50 [40]: 95.3 µM (inactive)
GI50 [41]: 43.2 µM (inactive)
GI50 [42]: > 100 µM (inactive)
GI50 [43]: 67.5 µM (inactive)
GI50 [44]: > 100 µM (inactive)
GI50 [45]: 52 µM (inactive)
GI50 [46]: 78.2 µM (inactive)
GI50 [47]: > 100 µM (inactive)
GI50 [48]: 51.9 µM (inactive)
GI50 [49]: 52.4 µM (inactive)
GI50 [50]: 47.4 µM (inactive)
GI50 [51]: 29.6 µM (inactive)
GI50 [52]: > 100 µM (inactive)
GI50 [53]: 85.7 µM (inactive)
GI50 [54]: > 100 µM (inactive)
GI50 [55]: 20.8 µM (inactive)
GI50 [56]: 23 µM (inactive)
GI50 [57]: 43.1 µM (inactive)
GI50 [58]: > 100 µM (inactive)

NC(=O)C(c1ccccc1)N1OC2C(=O)N(Cc3ccccc3)C(=O)C2C1c1cccc(Oc2ccc(Cl)cc2)c1 (stereo not given)
GI50 [1]: 21.3 µM (inactive)
GI50 [2]: 52.1 µM (inactive)
GI50 [3]: 31.4 µM (inactive)
GI50 [4]: 20.4 µM (inactive)
GI50 [5]: 34 µM (inactive)
GI50 [6]: 14.9 µM (inactive)
GI50 [7]: 36.1 µM (inactive)
GI50 [8]: 17.5 µM (inactive)
GI50 [9]: 33.1 µM (inactive)
GI50 [10]: 27.1 µM (inactive)
GI50 [11]: 19.4 µM (inactive)
GI50 [12]: 30.4 µM
GI50 [13]: 23.4 µM (inactive)
GI50 [14]: 42.1 µM (inactive)
GI50 [15]: 33 µM (inactive)
GI50 [16]: 18.2 µM (inactive)
GI50 [17]: 49.1 µM (inactive)
GI50 [18]: 36.5 µM (inactive)
GI50 [19]: 26 µM (inactive)
GI50 [20]: 28.3 µM (inactive)
GI50 [21]: 15.7 µM (inactive)
GI50 [22]: 23.6 µM (inactive)
GI50 [23]: 28 µM (inactive)
GI50 [24]: 37.1 µM (inactive)
GI50 [25]: 27 µM (inactive)
GI50 [26]: 20.7 µM (inactive)
GI50 [27]: 32.8 µM (inactive)
GI50 [28]: 42.9 µM (inactive)
GI50 [29]: 26.8 µM (inactive)
GI50 [30]: 36.2 µM (inactive)
GI50 [31]: 28.8 µM (inactive)
GI50 [32]: 28.7 µM (inactive)
GI50 [33]: 34 µM (inactive)
GI50 [34]: 19.9 µM (inactive)
GI50 [35]: 27.8 µM (inactive)
GI50 [36]: 32.1 µM (inactive)
GI50 [37]: 39.7 µM (inactive)
GI50 [38]: 33.4 µM (inactive)
GI50 [40]: 17.5 µM (inactive)
GI50 [41]: 35.8 µM (inactive)
GI50 [42]: 38.5 µM (inactive)
GI50 [43]: 18.7 µM (inactive)
GI50 [44]: 79.3 µM (inactive)
GI50 [45]: 22.2 µM (inactive)
GI50 [46]: 15.9 µM (inactive)
GI50 [47]: 60.7 µM (inactive)
GI50 [48]: 16.4 µM (inactive)
GI50 [49]: 37.1 µM (inactive)
GI50 [50]: 31.7 µM (inactive)
GI50 [51]: 22.7 µM (inactive)
GI50 [52]: 48.8 µM (inactive)
GI50 [53]: 32.1 µM (inactive)
GI50 [54]: 30.9 µM (inactive)
GI50 [55]: 28.2 µM (inactive)
GI50 [56]: 36.6 µM (inactive)
GI50 [57]: 15.8 µM (inactive)
GI50 [58]: 2.73 µM (inactive)
